# According to patent publication US20260262643A1, “HERBICIDAL BENZOXAZINES” (FMC CORPORATION, priority 2022, published 2026):
# Legend:
# blackgrass [1] = test: Test A preemergence; type: in vivo, Alopecurus myosuroides
# Summary of the method: (§1)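 Plants were grown in loam and sand and treated preemergence or postemergence (one- to two-leaf stage, 2–10 cm) with compound in solvent plus surfactant. Response was scored against untreated controls after 10 greenhouse days, where 0 means no effect and 100 complete control.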
# corn [2] = test: Test A preemergence; type: in vivo, Zea mays
# Summary of the method: as §1
# foxtail, giant [3] = test: Test A preemergence; type: in vivo, Setaria faberi
# Summary of the method: as §1
# goosegrass [4] = test: Test A preemergence; type: in vivo, Eleusine indica
# Summary of the method: as §1
# kochia [5] = test: Test A preemergence; type: in vivo, Bassia scoparia
# Summary of the method: as §1
# oat, wild [6] = test: Test A preemergence; type: in vivo, Avena fatua
# Summary of the method: as §1
# pigweed, palmer [7] = test: Test A preemergence; type: in vivo, Amaranthus palmeri
# Summary of the method: as §1
# ragweed [8] = test: Test A preemergence; type: in vivo, Ambrosia artemisiifolia
# Summary of the method: as §1
# ryegrass, Italian [9] = test: Test A preemergence; type: in vivo, Lolium multiflorum
# Summary of the method: as §1
# soybean [10] = test: Test A preemergence; type: in vivo, Glycine max
# Summary of the method: as §1
# wheat [11] = test: Test A preemergence; type: in vivo, Triticum aestivum
# Summary of the method: as §1
# blackgrass [12] = test: Test A postemergence; type: in vivo, Alopecurus myosuroides
# Summary of the method: as §1
# corn [13] = test: Test A postemergence; type: in vivo, Zea mays
# Summary of the method: as §1
# foxtail, giant [14] = test: Test A postemergence; type: in vivo, Setaria faberi
# Summary of the method: as §1
# goosegrass [15] = test: Test A postemergence; type: in vivo, Eleusine indica
# Summary of the method: as §1
# kochia [16] = test: Test A postemergence; type: in vivo, Bassia scoparia
# Summary of the method: as §1
# oat, wild [17] = test: Test A postemergence; type: in vivo, Avena fatua
# Summary of the method: as §1
# pigweed, palmer [18] = test: Test A postemergence; type: in vivo, Amaranthus palmeri
# Summary of the method: as §1
# ragweed [19] = test: Test A postemergence; type: in vivo, Ambrosia artemisiifolia
# Summary of the method: as §1
# ryegrass, Italian [20] = test: Test A postemergence; type: in vivo, Lolium multiflorum
# Summary of the method: as §1
# soybean [21] = test: Test A postemergence; type: in vivo, Glycine max
# Summary of the method: as §1
# wheat [22] = test: Test A postemergence; type: in vivo, Triticum aestivum
# Summary of the method: as §1
# galium = test: Test A postemergence; type: in vivo, Galium aparine
# Summary of the method: as §1
# barnyardgrass = test: Test B flooded paddy test; type: in vivo, Echinochloa crus-galli; details: 250 g ai/ha, Flood, 13 days, 0 to 100 scale (0 no effect, 100 complete control)
# Summary of the method: (§2)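 2-leaf stage; pots flooded 3 cm over soil; compound dosed into paddy water; depth kept constant. Greenhouse, 13 d. Visual rating vs controls, 0 (no effect)–100 (complete control). Dash = no result.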
# ducksalad = test: Test B flooded paddy test; type: in vivo, Heteranthera limosa; details: 250 g ai/ha, Flood, 13 days, 0 to 100 scale (0 no effect, 100 complete control)
# Summary of the method: as §2
# rice = test: Test B flooded paddy test; type: in vivo, Oryza sativa; details: 250 g ai/ha, Flood, 13 days, 0 to 100 scale (0 no effect, 100 complete control)
# Summary of the method: as §2
# sedge, umbrella = test: Test B flooded paddy test; type: in vivo, Cyperus difformis; details: 250 g ai/ha, Flood, 13 days, 0 to 100 scale (0 no effect, 100 complete control)
# Summary of the method: as §2
# horseweed = test: Test A postemergence; type: in vivo, Erigeron canadensis; details: postemergence, 10 days, 0 to 100 scale (0 no effect, 100 complete control)
# Summary of the method: as §1
# [23] = 125 g ai/ha, visual injury after 10 days, 0 to 100 scale, 0 is no effect, 100 is complete control
# [24] = 500 g ai/ha, 0 to 100 scale (0 no effect, 100 complete control), 10 days
# [25] = 125 g ai/ha, postemergence, 10 days, visual injury, 0 to 100 scale (0 no effect, 100 complete control)
# [26] = 500 g ai/ha, Postemergence, 0 to 100 scale
# [27] = 31 g ai/ha, postemergence, 10 days, 0 to 100 scale (0 no effect, 100 complete control)
structure (smiles),measurement,setting,value
C[C@H]1CN(C(=O)c2cccc(-n3cncn3)c2)c2cccc(OC(F)(F)F)c2O1 [Compound 48],"Plant response rating, Blackgrass",blackgrass [1]; [23],20
same,"Plant response rating, Blackgrass",blackgrass [1]; [24],80
same,"Plant response rating, Corn",corn [2]; [23],0
same,"Plant response rating, Corn",corn [2]; [24],30
same,"Plant response rating, Foxtail, Giant","foxtail, giant [3]; [23]",20
same,"Plant response rating, Foxtail, Giant","foxtail, giant [3]; [24]",90
same,"Plant response rating, Goosegrass",goosegrass [4]; [23],40
same,"Plant response rating, Goosegrass",goosegrass [4]; [24],80
same,"Plant response rating, Kochia",kochia [5]; [23],0
same,"Plant response rating, Kochia",kochia [5]; [24],30
same,"Plant response rating, Oat, Wild","oat, wild [6]; [23]",20
same,"Plant response rating, Oat, Wild","oat, wild [6]; [24]",30
same,"Plant response rating, Pigweed, Palmer","pigweed, palmer [7]; [23]",30
same,"Plant response rating, Pigweed, Palmer","pigweed, palmer [7]; [24]",90
same,"Plant response rating, Ragweed",ragweed [8]; [23],0
same,"Plant response rating, Ragweed",ragweed [8]; [24],0
same,"Plant response rating, Ryegrass, Italian","ryegrass, Italian [9]; [23]",70
same,"Plant response rating, Ryegrass, Italian","ryegrass, Italian [9]; [24]",100
same,"Plant response rating, Soybean",soybean [10]; [23],0
same,"Plant response rating, Soybean",soybean [10]; [24],0
same,"Plant response rating, Wheat",wheat [11]; [23],0
same,"Plant response rating, Wheat",wheat [11]; [24],0
same,"Plant response rating, Blackgrass",blackgrass [12]; [25],0
same,"Plant response rating, Blackgrass",blackgrass [12]; [26],30
same,"Plant response rating, Corn",corn [13]; [25],10
same,"Plant response rating, Corn",corn [13]; [26],60
same,"Plant response rating, Foxtail, Giant","foxtail, giant [14]; [25]",20
same,"Plant response rating, Foxtail, Giant","foxtail, giant [14]; [26]",70
same,"Plant response rating, Goosegrass",goosegrass [15]; [25],0
same,"Plant response rating, Goosegrass",goosegrass [15]; [26],40
same,"Plant response rating, Kochia",kochia [16]; [25],20
same,"Plant response rating, Kochia",kochia [16]; [26],50
same,"Plant response rating, Oat, Wild","oat, wild [17]; [25]",10
same,"Plant response rating, Oat, Wild","oat, wild [17]; [26]",30
same,"Plant response rating, Pigweed, Palmer","pigweed, palmer [18]; [25]",30
same,"Plant response rating, Pigweed, Palmer","pigweed, palmer [18]; [26]",70
same,"Plant response rating, Ragweed",ragweed [19]; [25],0
same,"Plant response rating, Ragweed",ragweed [19]; [26],20
same,"Plant response rating, Ryegrass, Italian","ryegrass, Italian [20]; [25]",20
same,"Plant response rating, Ryegrass, Italian","ryegrass, Italian [20]; [26]",40
same,"Plant response rating, Soybean",soybean [21]; [25],70
same,"Plant response rating, Soybean",soybean [21]; [26],100
same,"Plant response rating, Wheat",wheat [22]; [25],10
same,"Plant response rating, Wheat",wheat [22]; [26],30
same,"Plant response rating, Galium",galium; [25],40
same,"Plant response rating, Galium",galium; [26],60
same,"Plant response rating, Barnyardgrass",barnyardgrass,0
same,"Plant response rating, Ducksalad",ducksalad,0
same,"Plant response rating, Rice",rice,0
same,"Plant response rating, Sedge, Umbrella","sedge, umbrella",0
Cc1ccc(-n2cnc(Br)n2)cc1C(=O)N1C[C@H](C)Oc2c(Cl)cccc21 [Compound 62],"Plant response rating, Blackgrass","blackgrass [1]; 31 g ai/ha, 0 to 100 scale",0
same,"Plant response rating, Blackgrass",blackgrass [1]; [23],40
same,"Plant response rating, Corn","corn [2]; 31 g ai/ha, 0 to 100 scale",0
same,"Plant response rating, Corn",corn [2]; [23],0
same,"Plant response rating, Foxtail, Giant","foxtail, giant [3]; 31 g ai/ha, 0 to 100 scale",20
same,"Plant response rating, Foxtail, Giant","foxtail, giant [3]; [23]",90
same,"Plant response rating, Goosegrass","goosegrass [4]; 31 g ai/ha, 0 to 100 scale",70
same,"Plant response rating, Goosegrass",goosegrass [4]; [23],100
same,"Plant response rating, Kochia","kochia [5]; 31 g ai/ha, 0 to 100 scale",10
same,"Plant response rating, Kochia",kochia [5]; [23],80
same,"Plant response rating, Oat, Wild","oat, wild [6]; 31 g ai/ha, 0 to 100 scale",0
same,"Plant response rating, Oat, Wild","oat, wild [6]; [23]",0
same,"Plant response rating, Pigweed, Palmer","pigweed, palmer [7]; 31 g ai/ha, 0 to 100 scale",70
same,"Plant response rating, Pigweed, Palmer","pigweed, palmer [7]; [23]",90
same,"Plant response rating, Ragweed","ragweed [8]; 31 g ai/ha, 0 to 100 scale",0
same,"Plant response rating, Ragweed",ragweed [8]; [23],20
same,"Plant response rating, Ryegrass, Italian","ryegrass, Italian [9]; 31 g ai/ha, 0 to 100 scale",0
same,"Plant response rating, Ryegrass, Italian","ryegrass, Italian [9]; [23]",70
same,"Plant response rating, Soybean","soybean [10]; 31 g ai/ha, 0 to 100 scale",0
same,"Plant response rating, Soybean",soybean [10]; [23],0
same,"Plant response rating, Wheat","wheat [11]; 31 g ai/ha, 0 to 100 scale",0
same,"Plant response rating, Wheat",wheat [11]; [23],0
same,Blackgrass plant response rating,blackgrass [12]; [27],40
same,"Plant response rating, Blackgrass",blackgrass [12]; [25],50
same,Corn plant response rating,corn [13]; [27],10
same,"Plant response rating, Corn",corn [13]; [25],10
same,"Foxtail, Giant plant response rating","foxtail, giant [14]; [27]",20
same,"Plant response rating, Foxtail, Giant","foxtail, giant [14]; [25]",90
same,Goosegrass plant response rating,goosegrass [15]; [27],10
same,"Plant response rating, Goosegrass",goosegrass [15]; [25],20
same,Kochia plant response rating,kochia [16]; [27],80
same,"Plant response rating, Kochia",kochia [16]; [25],90
same,"Oat, Wild plant response rating","oat, wild [17]; [27]",0
same,"Plant response rating, Oat, Wild","oat, wild [17]; [25]",20
same,"Pigweed, Palmer plant response rating","pigweed, palmer [18]; [27]",40
same,"Plant response rating, Pigweed, Palmer","pigweed, palmer [18]; [25]",50
same,Ragweed plant response rating,ragweed [19]; [27],10
same,"Plant response rating, Ragweed",ragweed [19]; [25],20
same,"Ryegrass, Italian plant response rating","ryegrass, Italian [20]; [27]",0
same,"Plant response rating, Ryegrass, Italian","ryegrass, Italian [20]; [25]",40
same,Soybean plant response rating,soybean [21]; [27],100
same,"Plant response rating, Soybean",soybean [21]; [25],100
same,Wheat plant response rating,wheat [22]; [27],10
same,"Plant response rating, Wheat",wheat [22]; [25],10
same,Horseweed plant response rating,horseweed; 31 g ai/ha,0
same,"Plant response rating, Horseweed","horseweed; 125 g ai/ha, visual injury",0
same,"Plant response rating, Barnyardgrass",barnyardgrass,0
same,"Plant response rating, Ducksalad",ducksalad,0
same,"Plant response rating, Rice",rice,0
same,"Plant response rating, Sedge, Umbrella","sedge, umbrella",0
